Values of other authors, collected in paper PMC3172588 (Organic & Biomolecular Chemistry, 2010).
Blank lines part the entries; values can stand above or below the molecule they belong to.

Experiments:
[1] = tested on: sea urchin cADPR receptor (sea urchin egg homogenate, SUH)
[2] = tested on: T cell-cADPR receptor (permeabilised Jurkat T-cells, JTC); conditions: class in words; ref [8],[17],[23],[36]

times more potent than cADPR in SUH ([1]; agonist, ref [20]): 70 times
Molecule: 3-deaza cADPR

EC50 ([1]; read-out: Activity in SUH: agonist EC50, Table 3, compounds synthesized by Shuto's group, ref [15],[38],[51],[52]): 19 µM
Molecule: 8-Cl-cADPcR [8-Cl-cADPcR (5)]

Molecule: O=c1c2nc(Br)n3c2ncn1[C@@H]1O[C@H](COP(=O)(O)OP(=O)(O)OC[C@H]2O[C@@H]3[C@H](O)[C@@H]2O)[C@@H](O)[C@H]1O [8-Bromo cIDPR]
Activity in T cells / JTC (running text, literature) [2]: agonist activity

Activity in SUH (running text, literature) ([1]; class in words, ref [8],[13],[17],[23],[32],[36],[38]): antagonists
Molecule: [N-]=[N+]=Nc1nc2c(=N)n3cnc2n1C1OC(COP(=O)(O)OP(=O)(O)OCC2OC3C(O)C2O)C(O)C1O (stereo not shown) [8-azido-cADPR]
